For one test, the target named is T1, PTP1B (Homo sapiens, UniProt P18031).
T1 sequence (P18031 1-435): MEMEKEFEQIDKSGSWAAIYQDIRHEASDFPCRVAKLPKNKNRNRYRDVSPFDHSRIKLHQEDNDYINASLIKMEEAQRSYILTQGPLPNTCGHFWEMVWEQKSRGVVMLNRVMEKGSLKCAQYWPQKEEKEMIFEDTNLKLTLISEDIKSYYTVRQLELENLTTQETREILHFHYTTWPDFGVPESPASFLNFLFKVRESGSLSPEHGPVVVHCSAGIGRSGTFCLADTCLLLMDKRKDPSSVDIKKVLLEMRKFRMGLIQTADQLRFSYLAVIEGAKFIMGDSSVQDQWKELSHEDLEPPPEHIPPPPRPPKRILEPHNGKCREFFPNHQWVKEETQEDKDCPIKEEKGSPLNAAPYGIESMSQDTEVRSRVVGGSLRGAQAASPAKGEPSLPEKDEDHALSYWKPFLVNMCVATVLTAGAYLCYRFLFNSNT
Briefly: Phosphatase activity assay (DiFMUP substrate). In kind it is biochemical. To be noted: value bin printed in column head. The protocol:
(§1) The selectivity and potency of a small molecule PTPN2 inhibitor as provided herein against one or more protein tyrosine phosphatase (PTP) enzymes, and specifically against PTPN2, is assessed in various ways. The one or more PTP enzymes comprise Mycobacterium protein tyrosine phosphatase A (mPTPA), Mycobacterium protein tyrosine phosphatase B (mPTPB), PTPN1 (i.e., PTP1B), PTPN2 (i.e., TC-PTP), PTPN22 (i.e., LYP), SHP-1, SHP-2, FAP-1, Meg2, HePTP, Laforin, VHX, VHR, LMWPTP, Cdc14A, LAR, CD45, PTPRG, a fragment thereof, a variant thereof, and a combination thereof. Selectivity and potency of a small molecule PTPN2 inhibitor is evaluated using a PTP activity inhibition assay. The assay is performed using a buffer comprising 50 mM HEPES buffer pH 7.5, 150 mM NaCl, 0.5 mM EDTA, 1 mM DTT, 0.001% Tween-20.
(§2) The assay is performed using a phosphated substrate, e.g., 10 mM 6,8-Difluoro-4-Methylumbelliferyl Phosphate (DIFMUP) that is stored at −20° C. Alternatively or in addition to, the assay is performed using other phosphated substrate (e.g., fluorescein diphosphate). Each PTP enzyme is diluted in the assay buffer
(§3) The assay can be carried out at room temperature in multiplate format, e.g., using 384 well plates. A small molecule PTPN2 inhibitor dissolved in DMSO at one of 10 concentrations from a serial dilution or DMSO alone for control is added to each well. A mixture of the assay buffer comprising PTP enzyme (e.g., 0.025 ng/ul PTPN2) is added to each well and mixed for approximately 2 minutes. The reaction is initiated by adding DiFMUP diluted in the assay buffer to a final concentration of approximately 45 µM DiFMUP in PTPN2 assay. For each PTP enzyme, DiFMUP is added at the Km (Michaelis constant) of the enzyme that had been independently determined. The phosphatase activity of the PTP enzyme is assessed by monitoring appearance of a fluorescent product (6,8-difluoro-7-hydroxyl-4-coumarin (DiFMU) from DiFMUP) continuously for about 15 to 30 minutes, using the INFINITE M1000Pro plate reader (Tecan) with excitation at 360 nm and emission at 450 nm (cutoff filter at 435 nm) for DiFMU. Each assay is performed at least in duplicate. The rate (e.g., the initial rate) of DiFMU formation is plotted against the concentration of the small molecule PTPN2 inhibitor, and the data is fitted (e.g., using a 4-parameter equation) to determine the inflection point of the fit as the IC50 of the small molecule PTPN2 inhibitor for a specific enzyme. Utilizing this assay, the ability of the compounds in Table 1 to inhibit PTPN2 and PTP1B has been assessed. Table 3 summarizes the IC50 values.

A further test has as its target T2, PTPN2 (Homo sapiens, UniProt P17706).
T2 sequence (P17706 1-415): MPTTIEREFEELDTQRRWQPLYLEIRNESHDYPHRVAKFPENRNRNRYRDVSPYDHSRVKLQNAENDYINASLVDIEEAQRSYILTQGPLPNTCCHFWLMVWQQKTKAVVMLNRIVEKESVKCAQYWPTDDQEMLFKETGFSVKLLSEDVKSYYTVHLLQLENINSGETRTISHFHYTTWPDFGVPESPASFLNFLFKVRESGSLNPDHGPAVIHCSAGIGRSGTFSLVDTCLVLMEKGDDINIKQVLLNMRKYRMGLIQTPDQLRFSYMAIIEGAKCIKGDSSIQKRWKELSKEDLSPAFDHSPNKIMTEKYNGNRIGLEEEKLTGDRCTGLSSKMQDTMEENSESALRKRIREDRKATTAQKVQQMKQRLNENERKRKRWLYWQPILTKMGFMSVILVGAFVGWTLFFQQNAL
Briefly: Phosphatase activity assay (DiFMUP substrate). The format is biochemical. To be noted: value bin printed in column head. The procedure:
as §1, §2, §3

Consider 20 compounds from patent publication US20260109694A1, “HETEROCYCLIC COMPOUNDS AND USES THEREOF” (Kumquat Biosciences Inc., priority 2023, published 2026).

Where only a bound is given, the exact number is not on record here.

Regarding `N#CCCCC1C=C(c2ccc(O)c(N3CC(=O)NS3(=O)=O)c2F)CN1` (stereo not shown) [Compound 119, 4-(4-(3-(1,1-dioxido-4-oxo-1,2,5-thiadiazolidin-2-yl)-2-fluoro-4-hydroxyphenyl)-2,5-dihydro-1H-pyrrol-2-yl)butanenitrile], the IC50 on PTP1B and at PTPN2 was at most 1000 nM each time.

For `CC(C)(C)CC[C@H]1C=C(c2ccc(O)c(N3CC(=O)NS3(=O)=O)c2F)CN1` [Compound 120, (S)-5-(3-(5-(3,3-dimethylbutyl)-2,5-dihydro-1H-pyrrol-3-yl)-2-fluoro-6-hydroxyphenyl)-1,2,5-thiadiazolidin-3-one 1,1-dioxide], the IC50 on PTP1B and on PTPN2 was at most 1000 nM in each case.

For `CC(=O)OC(C)OC(=O)N1CC(c2ccc(O)c(N3CC(=O)NS3(=O)=O)c2F)=C[C@H]1CCC1CC1` (stereo partly drawn) [Compound 121, 1-acetoxyethyl (2R)-2-(2-cyclopropylethyl)-4-(3-(1,1-dioxido-4-oxo-1,2,5-thiadiazolidin-2-yl)-2-fluoro-4-hydroxyphenyl)-2,5-dihydro-1H-pyrrole-1-carboxylate], the IC50 at PTP1B and on PTPN2 was at most 1000 nM throughout.

For the compound `O=C1CN(c2c(O)ccc(CC3CCCNC3)c2F)S(=O)(=O)N1` (stereo not shown) [Compound 122, 5-(2-fluoro-6-hydroxy-3-(piperidin-3-ylmethyl)phenyl)-1,2,5-thiadiazolidin-3-one 1,1-dioxide], the IC50 at PTP1B and on PTPN2 was at most 1000 nM throughout.

As for `O=C1CN(c2c(O)ccc(C3=CC(CCCC4CC4)NC3)c2F)S(=O)(=O)N1` (stereo not shown) [Compound 123, 5-(3-(5-(3-cyclopropylpropyl)-2,5-dihydro-1H-pyrrol-3-yl)-2-fluoro-6-hydroxyphenyl)-1,2,5-thiadiazolidin-3-one 1,1-dioxide], the IC50 on PTP1B and at PTPN2 was at most 1000 nM in each case.

`O=C1CN(c2c(O)ccc(C(=O)NC3CNC3)c2F)S(=O)(=O)N1` [Compound 124, N-(azetidin-3-yl)-3-(1,1-dioxido-4-oxo-1,2,5-thiadiazolidin-2-yl)-2-fluoro-4-hydroxybenzamide]: the IC50 at PTP1B and on PTPN2 was over 1000 nM in each case.

As to `O=C1CN(c2c(O)ccc(C3=CC(C4CCC4)NC3)c2F)S(=O)(=O)N1` (stereo not shown) [Compound 125, 5-(3-(5-cyclobutyl-2,5-dihydro-1H-pyrrol-3-yl)-2-fluoro-6-hydroxyphenyl)-1,2,5-thiadiazolidin-3-one 1,1-dioxide], the IC50 at PTP1B and at PTPN2 was at most 1000 nM throughout.

With `O=C1CN(c2c(O)ccc(C3=CC(CC4CCC4)NC3)c2F)S(=O)(=O)N1` (stereo not shown) [Compound 126, 5-(3-(5-(cyclobutylmethyl)-2,5-dihydro-1H-pyrrol-3-yl)-2-fluoro-6-hydroxyphenyl)-1,2,5-thiadiazolidin-3-one 1,1-dioxide], the IC50 on PTP1B and on PTPN2 was at most 1000 nM in each case.

With `O=C1CN(c2c(O)ccc(CC3CCNCC3)c2F)S(=O)(=O)N1` [Compound 127, 5-(2-fluoro-6-hydroxy-3-(piperidin-4-ylmethyl)phenyl)-1,2,5-thiadiazolidin-3-one 1,1-dioxide], the IC50 at PTP1B and at PTPN2 was at most 1000 nM throughout.

On to `O=C1CN(c2c(O)cc(C3=CCNC3)cc2F)S(=O)(=O)N1` [Compound 128, 5-(4-(2,5-dihydro-1H-pyrrol-3-yl)-2-fluoro-6-hydroxyphenyl)-1,2,5-thiadiazolidin-3-one 1,1-dioxide], for which the IC50 on PTP1B and on PTPN2 was at most 1000 nM each time.

As to `CCC[C@H]1C=C(c2ccc(O)c(N3CC(=O)NS3(=O)=O)c2F)CN1` [Compound 129, (S)-5-(2-fluoro-6-hydroxy-3-(5-propyl-2,5-dihydro-1H-pyrrol-3-yl)phenyl)-1,2,5-thiadiazolidin-3-one 1,1-dioxide], the IC50 on PTP1B and on PTPN2 was at most 1000 nM throughout.

As for `O=C1CN(c2c(O)ccc(C3=C[C@H](CCC4CC4)NC3)c2F)S(=O)(=O)N1` [Compound 130, (S)-5-(3-(5-(2-cyclopropylethyl)-2,5-dihydro-1H-pyrrol-3-yl)-2-fluoro-6-hydroxyphenyl)-1,2,5-thiadiazolidin-3-one 1,1-dioxide], the IC50 at PTP1B and at PTPN2 was at most 1000 nM throughout.

On to `O=C1CN(c2c(O)ccc(C3=CC(CO)CC3)c2F)S(=O)(=O)N1` (stereo not shown) [Compound 131, 5-(2-fluoro-6-hydroxy-3-(3-(hydroxymethyl)cyclopent-1-en-1-yl)phenyl)-1,2,5-thiadiazolidin-3-one 1,1-dioxide], for which the IC50 at PTP1B and on PTPN2 was at most 1000 nM each time.

For the compound `O=C1CN(c2c(O)cc(C3=CCCNC3)cc2F)S(=O)(=O)N1` [Compound 132, 5-(2-fluoro-6-hydroxy-4-(1,2,5,6-tetrahydropyridin-3-yl)phenyl)-1,2,5-thiadiazolidin-3-one 1,1-dioxide], the IC50 on PTP1B and at PTPN2 was at most 1000 nM throughout.

Take `O=C1CN(c2c(O)ccc(C3=CC(CCC(F)(F)F)NC3)c2F)S(=O)(=O)N1` (stereo not shown) [Compound 133, 5-(2-fluoro-6-hydroxy-3-(5-(3,3,3-trifluoropropyl)-2,5-dihydro-1H-pyrrol-3-yl)phenyl)-1,2,5-thiadiazolidin-3-one 1,1-dioxide]: the IC50 at PTP1B and at PTPN2 was at most 1000 nM each time.

For `O=C1CN(c2c(O)ccc(C3=C[C@H](CCC4CCC4)NC3)c2F)S(=O)(=O)N1` [Compound 134, (S)-5-(3-(5-(2-cyclobutylethyl)-2,5-dihydro-1H-pyrrol-3-yl)-2-fluoro-6-hydroxyphenyl)-1,2,5-thiadiazolidin-3-one 1,1-dioxide], the IC50 on PTP1B and on PTPN2 was at most 1000 nM throughout.

Consider `O=C1CN(c2c(O)ccc(C3=CCC(CO)C3)c2F)S(=O)(=O)N1` (stereo not shown) [Compound 135, 5-(2-fluoro-6-hydroxy-3-(4-(hydroxymethyl)cyclopent-1-en-1-yl)phenyl)-1,2,5-thiadiazolidin-3-one 1,1-dioxide], for which the IC50 at PTP1B and on PTPN2 was at most 1000 nM each time.

In the case of `O=C1CN(c2c(O)ccc(C(=O)NC3CCNC3)c2F)S(=O)(=O)N1` (stereo not shown) [Compound 136, 3-(1,1-dioxido-4-oxo-1,2,5-thiadiazolidin-2-yl)-2-fluoro-4-hydroxy-N-(pyrrolidin-3-yl)benzamide], the IC50 on PTP1B and at PTPN2 was over 1000 nM in each case.

For `O=C1CN(c2c(O)ccc(C3=CC(CCCC(F)F)NC3)c2F)S(=O)(=O)N1` (stereo not shown) [Compound 137, 5-(3-(5-(4,4-difluorobutyl)-2,5-dihydro-1H-pyrrol-3-yl)-2-fluoro-6-hydroxyphenyl)-1,2,5-thiadiazolidin-3-one 1,1-dioxide], the IC50 on PTP1B and on PTPN2 was at most 1000 nM each time.

Regarding `O=C1CN(c2c(O)cc(C3CCCNC3)cc2F)S(=O)(=O)N1` (stereo not shown) [Compound 138, 5-(2-fluoro-6-hydroxy-4-(piperidin-3-yl)phenyl)-1,2,5-thiadiazolidin-3-one 1,1-dioxide], the IC50 at PTP1B and at PTPN2 was at most 1000 nM throughout.

A word on the IC50: it is the concentration at which inhibition is half-maximal.
